Experimental data published in patent US8545820B2, “Use of titanium-based materials as bactericides” (Savannah River Nuclear Solutions, LLC, priority 2010, dated 2013).

Columns and labels:
[1] = tested on: Actinomyces naeslundii (An); assay: Planktonic bacterial growth suppression (OD at 595 nm, 24 h exposure); format: cell-based
Method: (§1) Set forth in Table 1 are the species of oral bacteria which were evaluated. These species are atiologic agents and periodontal disease, gingivitis, or caries that would lend themselves to treatment with a solid-phase metal titanate compound. […] All bacteria were cultured from frozen stocks expanded from ATCC cultures; the absence of contamination was verified at each thaw via Gram stain. All bacteria were grown over 24 h to mid-log phase before inoculating experimental cultures.
(§2) One hundred μL of the initial culture was plated in 96 well plate format number of bacterial cells present in a given volume of culture was determined by correlating OD reading of bacterial culture at 595 nm to the number of cells present. […] Prior to exposing bacteria to metal-titanate compounds, appropriate dilutions of each bacterial species were made so that metal-titanate compounds are consistently exposed to 3.56E9 bacteria for all species tested. This strategy assured the same cell to titanate particle ratio, allowed repeatability, and allowed log growth phase throughout the 24 h time when bacteria were exposed to the titanates. A 24 h incubation time with titanates was chosen to maximize the exposure to the titanates without risking a culture deteriorating from overgrowth.
(§3) For metal ions alone, 5 μL of a concentrated stock solution of the respective metal salt were added to 95 μL of the bacterial cultures (n=8 per condition). […] The cultures were mixed to ensure contact between the titanates and the bacteria. MST and APT suspensions were thoroughly mixed prior to addition to ensure accurate transfer of the particles. […] Titanate-bacterial cultures were incubated for 24 h under the conditions appropriate for each type of bacterium. After 24 h, the cultures were thoroughly mixed prior to reading the OD. Control cultures for experiments included cultures of media alone (no titanates or bacteria), titanates in media (no bacteria), and bacteria alone (no titanates). […] All experiments were repeated in triplicate to assure reproducibility.
(§4) The initial and final mean and standard deviation OD readings were plotted as a function of concentration. The titanate only controls were also plotted as a baseline. Cultures were statistically compared (two-sided Student's t-tests, α=0.05) to determine significant effects of the titanates (with or without added metal) on bacterial growth.
(§5) A similar strategy was used to assess the antibacterial action of the metal ions alone, so that the relative efficacy of the titanates alone and titanate metal complexes could be compared to the metal ions alone. The delivery potential of metal ion from the titanate-metal complexes was determined by calculating the total metal mass complexed with the titanates at each titanate particle concentration.

[2] = tested on: Prevotella intermedia (Pi); assay: as above; format: cell-based; details: concentrations ≦1500 μM
Method: as §1, §2, §3, §4, §5

bacteria in Table 1 = assay: Planktonic bacterial growth suppression, statements pooled over the species tested; format: cell-based, oral bacteria
Method: as §1
One hundred μL of the initial culture was plated in 96 well plate format number of bacterial cells present in a given volume of culture was determined by correlating OD reading of bacterial culture at 595 nm to the number of cells present. […] Prior to exposing bacteria to metal-titanate compounds, appropriate dilutions of each bacterial species were made so that metal-titanate compounds are consistently exposed to 3.56E9 bacteria for all species tested. […]
For metal ions alone, 5 μL of a concentrated stock solution of the respective metal salt were added to 95 μL of the bacterial cultures (n=8 per condition). […] After 24 h, the cultures were thoroughly mixed prior to reading the OD. […]
The initial and final mean and standard deviation OD readings were plotted as a function of concentration. […]

mammalian cells = details: metal ion alone; based on previous reports; cited from earlier work
[3] = Aqueous solubility of the metal chloride salt; format: physicochemical

For `O.O.O.[Cl][Au-]([Cl])([Cl])[Cl].[H+]` [Au(III), HAuCl4•3H2O], the “An growth suppression by metal ion alone” value ([1]; >10 μM) was “completely suppressed”, the “Effect of metal ion alone on Pi” value [2] was “no observable effect” and the “Relative potency among the metal ions alone” value (bacteria in Table 1; metal ions alone, excepting Pt(II)) was “most potent”. For the same molecule, the “Inhibitory concentration for mammalian cells” value (“Inhibitory concentration” for short) (mammalian cells) was 60 to 115 µM.

With `CC[C@H]1OC(=O)[C@H](C)[C@@H](O[C@H]2C[C@@](C)(OC)[C@@H](O)[C@H](C)O2)[C@H](C)[C@@H](O[C@@H]2O[C@H](C)C[C@H](N(C)C)[C@H]2O)[C@](C)(O)C[C@@H](C)C(=O)[C@H](C)[C@@H](O)[C@]1(C)O` [erythromycin] the “Bacteriostatic control (Bac-Em)” value (bacteria in Table 1; bacteria with erythromycin 100 μg/mL, no titanates) was “behaved as expected”.

For `[Cl][Pd][Cl]` [Pd(II), PdCl2], the “An growth suppression by metal ion alone” value ([1]; >1000 μM) is given as “approximately 30%” and the “Inhibitory concentration” value (mammalian cells) is given as 100 to 300 µM.

In the case of `[Cl][Pt][Cl]` [Pt(IV), PtCl2], the “An growth suppression by metal ion alone” value ([1]; concentrations ≦750 μM) is given as “not suppressed” and the “Inhibitory concentration” value (mammalian cells) is given as 25 µM.

For `[Cl][Pt][Cl]` [Pt(II), PtCl2], the “Aqueous solubility of the chloride salt” value [3] was “limited aqueous solubility”.
